Article PMC7369796, “The Diverse Piscidin Repertoire of the European Sea Bass (Dicentrarchus labrax): Molecular Characterization and Antimicrobial Activities” (International Journal of Molecular Sciences, 2020)
Where two headings read alike, the source gives them in different places. Ends that are not written are not given here.

Tests used:
[1] = system: P. damselae subsp. damselae (DSM 7482); type: cell-based, Photobacterium damselae subsp. damselae; details: DSM 7482, 24 h
Experimental: (§1) The biological activity of sea bass piscidin mature peptides was studied by determining their antimicrobial properties. Synthetic piscidin peptides were based on the predicted coding sequences and were commercially produced (NZYtech, Lisbon, Portugal) with an additional C-terminal amidation (Table S3). Peptides were incubated in serial dilutions with ten bacterial strains, known to cause severe diseases in aquaculture: Photobacterium damselae subsp. piscicida (DSM 22834), P. damselae subsp. damselae (DSM 7482), Vibro anguillarum (DSM 21597), V. alginolyticus (DSM 2171), Aeromonas salmonicida subsp. salmonicida (DSM 19634), A. hydrophila subsp. hydrophila (DSM 30187), Yersinia ruckeri (DSM 18506), Edwardsiella tarda (DSM 30052), Lactococcus garviae (DSM 20684) and Streptococcus parauberis (DSM 6631). In short, 1 × 10^8 bacteria per milliliter were incubated in optimal growth conditions with the peptide in flat-bottom 96-well plates, in a final volume of 100 µL, and OD was read at 600 nm in a plate reader after 24 h of incubation. Wells with no added peptide were used as controls, and wells without bacteria were used as blanks. The minimal inhibitory concentration (MIC) was determined as the lowest concentration of piscidin that reduced 50% of bacterial growth when compared to the controls. The MICs reported correspond to representative results from two independent experiments.

[2] = system: Lactococcus garviae (DSM 20684); type: cell-based; details: DSM 20684, 24 h
Experimental: as §1

[3] = system: Photobacterium damselae subsp. piscicida (DSM 22834); type: cell-based; details: DSM 22834, 24 h
Experimental: as §1

[4] = system: Streptococcus parauberis (DSM 6631); type: cell-based
Experimental: as §1

[5] = system: Trypanosoma brucei brucei bloodstream forms (strain Lister 427); experiment: Antiparasitic activity (resazurin reduction, IC50); type: cell-based; details: T. brucei brucei bloodstream forms; 72 h, serial dilutions up to 100 µM, 96-well, 200 µL; resazurin reduction (fluorescence 544/590 nm); non-linear regression; means ± SD, two separate experiments
Experimental: (§2) The anti-protozoal activity of sea bass piscidins was evaluated using two parasites: Trypanosoma brucei brucei bloodstream forms (strain Lister 427) and Leishmania infantum promastigotes (strain MHOM/MA/67/ITMAP-263). Parasites were incubated in optimal growth conditions with serial dilutions of the different peptides in flat-bottom 96-well plates, in a final volume of 200 µL, during 72 h. Cell metabolic activity was measured by resazurin reduction. Briefly, 20 µL of resazurin (50 µM) were added and incubated for 4 h. The fluorescence of resorufin, resulting from resazurin reduction by metabolically active cells, was measured at λex = 544 nm and λem = 590 nm in Synergy 2 (BioTek, Winooski, Vermont, USA). Cultures with no added peptide were used as negative controls and cultures with the reference drugs, namely pentamidine (10 nM) and miltefosine (40 µM) were used as positive controls for T. brucei and L. infantum inhibition assays, respectively. Wells with culture medium were used as blanks. Anti-parasitic effect was evaluated by the determination of IC50 value (concentration required to inhibit growth in 50%) and calculated by non-linear regression analysis using GraphPad Prism version 8.1.1 for Windows (GraphPad Software, San Diego, CA, USA). The IC50 reported correspond to representative results from two independent experiments.

[6] = system: Leishmania infantum promastigotes (strain MHOM/MA/67/ITMAP-263); type: cell-based; details: 72 h
Experimental: as §2

[7] = system: Vibro anguillarum (DSM 21597); type: cell-based, V. anguillarum; details: DSM 21597, 24 h
Experimental: as §1

[8] = system: Aeromonas salmonicida subsp. salmonicida (DSM 19634); type: cell-based; details: DSM 19634, 24 h
Experimental: as §1

[9] = system: V. alginolyticus (DSM 2171); type: cell-based; details: DSM 2171, 24 h
Experimental: as §1

[10] = system: Yersinia ruckeri (DSM 18506); type: cell-based; details: DSM 18506, 24 h
Experimental: as §1

Substance	MIC [1] [µM]	MIC [2] [µM]	MIC [3] [µM]	MIC ([4]; DSM 6631, 24 h) [µM]	IC50 [5] [µM]	IC50 [6] [µM]	MIC [7] [µM]	MIC [8] [µM]	MIC [9] [µM]	MIC [10] [µM]	MIC ([4]; S. parauberis, 1 × 10^8 bacteria/mL, 96-well, 100 µL, 24 h, OD 600 nm, serial dilutions up to 200 µM, MIC = lowest concentration that reduced 50% of bacterial growth vs controls, means ± SD, two separate experiments, N.A. = not active at the highest concentration tested) [µM]
FIHHIFRGIINAGKSIGRFITG-NH2 [Piscidin4]	81.3 ± 9.5	48.8 ± 40.1	29.1 ± 12.0	1.8 ± 1.8	3.24 ± 0.16	8.34 ± 0.81					
FLGRVKSMWSGVRNGYKAYKYQRNMAKMNKGYGPNWQQGGGQEPPADAQANDQPP-NH2 [Piscidin7]					7.3 ± 0.32	66.77 ± 0.08					
FLGRFFRRTQAILRGARQGWRAHKAVSRYRDRYIPETDNNQEQP-NH2 [Piscidin2]	105.8 ± 22.1		9.1 ± 1.7	6.9 ± 2.8	1.74 ± 0.13	5.52 ± 0.26	146.1 ± 21.4	67.7 ± 0.2	66.2 ± 2.0	137.6 ± 3.1	
LIGSLFRGAKAIFRGARQGWRAHKAVSRYRAGYVRRPVVYYHRVYP-NH2 [Piscidin5]	14.8 ± 2.0	42.3 ± 16.4	3.3 ± 0.1	1.3 ± 1.2	4.42 ± 0.12	7.24 ± 0.61	10.1 ± 2.7	47.9 ± 6.1	36.9 ± 2.3	25.4 ± 1.8	
LFGSLKAWFKGGKQASRDYKYQKDMAKMNKRYGPNWQQGGGQQPPANAQANDQPPADAQANDQPS-NH2 [Piscidin6, synthetic putative mature peptide of European sea bass piscidin 6, 65 aa, MT066195]					56.5 ± 1.61						87.7 ± 123.0
FFHHIFRGIVHVGKTIHRLVTG-NH2 [Piscidin1]	15.0 ± 0.2	33.9 ± 3.8	7.4 ± 1.6	2.4 ± 0.8	3.88 ± 0.11	5.2 ± 0.03	16.3 ± 0.6	64.2 ± 2.1	34.8 ± 0.3	48.4 ± 3.8	
